This assay concerns the target Melanin-concentrating hormone receptor 1 (Homo sapiens, UniProt Q99705). As to the kind of experiment: Binding Assay: Evaluation of the affinity of compounds for the human MCH-1 receptor was accomplished using 4-(3,4,5-tritritiumbenzyloxy)-1-(1-(2-(pyrrolidin-1-yl)ethyl)-1H-indazol-5-yl)pyridin-2(1H)-one and membranes prepared from stable CHO-K1 cells expressing the human MCH1 receptor obtained from Euroscreen (Batch 1138). It counts as cell membranes.

This passage reports Ki results from ChEMBL document CHEMBL3639024, “Azinone-substituted azapolycycle MCH-1 antagonists, methods of making, and use thereof” (2013).

Molecules are shown by their SMILES.

Chain of Melanin-concentrating hormone receptor 1 (Q99705 whole entry): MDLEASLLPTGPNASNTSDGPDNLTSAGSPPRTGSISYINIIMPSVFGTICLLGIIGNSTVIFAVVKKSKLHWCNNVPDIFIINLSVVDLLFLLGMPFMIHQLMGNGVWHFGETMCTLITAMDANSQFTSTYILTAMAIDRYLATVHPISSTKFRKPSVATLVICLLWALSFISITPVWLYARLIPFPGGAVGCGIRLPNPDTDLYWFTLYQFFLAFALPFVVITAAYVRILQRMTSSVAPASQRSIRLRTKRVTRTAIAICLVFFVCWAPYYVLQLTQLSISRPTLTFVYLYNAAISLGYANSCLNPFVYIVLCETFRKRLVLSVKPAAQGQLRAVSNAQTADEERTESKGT

As a reminder, the Ki is the equilibrium dissociation constant of an inhibitor or competing ligand from its target. `Cn1c2c(c3ccc(-n4ccc(OCc5ccc(F)cn5)cc4=O)cc31)CN1CCCC1C2` (stereo unspecified) came in with an inhibition constant (Ki) of 9.7 nM.
